Assay results from PMC12304827 (British Journal of Clinical Pharmacology, 2025).
Read-outs that look alike come from different tables or passages of the source.

Legend:
CYP3A [1] = experiment: Midazolam and efavirenz DDI study: midazolam PK with/without ritlecitinib
CYP2B6 = target: T1, CYP2B6 (Homo sapiens, UniProt P20813); settings: for Effect of ritlecitinib on efavirenz AUC0–72 and Cmax (in words): ritlecitinib 200 mg QD
T1 sequence (P20813 1-491): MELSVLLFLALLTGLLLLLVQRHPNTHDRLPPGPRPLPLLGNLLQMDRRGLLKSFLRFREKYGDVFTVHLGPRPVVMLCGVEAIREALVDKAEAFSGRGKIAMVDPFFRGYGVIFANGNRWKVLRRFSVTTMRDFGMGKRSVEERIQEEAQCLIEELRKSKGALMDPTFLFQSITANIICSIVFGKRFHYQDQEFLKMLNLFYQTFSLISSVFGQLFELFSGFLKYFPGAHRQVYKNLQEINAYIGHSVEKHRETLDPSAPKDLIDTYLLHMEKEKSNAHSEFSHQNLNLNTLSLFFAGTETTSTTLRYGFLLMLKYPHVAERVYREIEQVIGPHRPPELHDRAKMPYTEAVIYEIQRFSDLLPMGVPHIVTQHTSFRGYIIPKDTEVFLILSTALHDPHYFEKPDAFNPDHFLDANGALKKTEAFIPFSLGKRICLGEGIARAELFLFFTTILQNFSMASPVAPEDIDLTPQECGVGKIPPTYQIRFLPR

[2] = OC study 2: EE and LN PK with/without ritlecitinib 50 mg QD; type: in vivo, human; settings: for AUC(0-inf) / AUC(0-t) / Cmax: female, human, plasma, oral; for Cmax: adjusted geometric mean (test), 1 Portia tablet on Day 10 of ritlecitinib 50 mg QD × 13 days, healthy females
[3] = OC study 1: EE and LN PK with/without ritlecitinib 200 mg QD; type: in vivo, human; settings: for AUC(0-inf) / Cmax / AUC(0-t): female, human, plasma, oral, healthy females; for AUC(0-inf): AUCinf; for AUC(0-t): AUClast
[4] = cited from earlier work
CYP1A2 [5] = target: T2, CYP1A2 (Homo sapiens, UniProt P05177); experiment: CYP time-dependent inhibition in human liver microsomes; type: in vitro ADME
T2 sequence (P05177 1-516): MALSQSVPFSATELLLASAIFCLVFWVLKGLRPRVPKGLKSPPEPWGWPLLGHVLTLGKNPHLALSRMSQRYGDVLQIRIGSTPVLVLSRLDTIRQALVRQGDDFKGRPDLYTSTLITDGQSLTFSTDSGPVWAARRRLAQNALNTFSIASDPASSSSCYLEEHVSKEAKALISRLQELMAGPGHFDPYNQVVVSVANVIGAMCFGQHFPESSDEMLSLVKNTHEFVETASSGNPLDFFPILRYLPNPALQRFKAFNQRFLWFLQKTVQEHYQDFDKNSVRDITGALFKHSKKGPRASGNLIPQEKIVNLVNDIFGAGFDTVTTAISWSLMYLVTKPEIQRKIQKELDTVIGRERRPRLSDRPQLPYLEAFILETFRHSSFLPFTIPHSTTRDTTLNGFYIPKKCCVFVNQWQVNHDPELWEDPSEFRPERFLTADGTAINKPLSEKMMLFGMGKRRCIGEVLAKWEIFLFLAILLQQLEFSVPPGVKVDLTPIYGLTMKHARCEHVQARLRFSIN

CYP = experiment: Rifampicin DDI study: ritlecitinib PK with/without rifampicin; type: in vivo, human
CYP3A [6] = experiment: Itraconazole DDI study: ritlecitinib PK with/without itraconazole; type: in vivo, human
[7] = system: organic cation transporter 1 (OCT1); settings: cited from earlier work
CYP1A2 [8] = experiment: Caffeine DDI study: caffeine PK with/without ritlecitinib; type: in vivo, human; settings: from caffeine DDI at ritlecitinib 200 mg QD
CYP3A4/5 = experiment: CYP time-dependent inhibition in human liver microsomes; type: in vitro ADME
[9] = cited from earlier work; remark: listed apart in the source
CYP1A2 [10] = settings: cited from earlier work
[11] = midazolam with ritlecitinib 200 mg QD × 11 days vs without
[12] = midazolam with ritlecitinib 200 mg QD × 11 days vs without, listed as midazolam
[13] = efavirenz with ritlecitinib 200 mg QD × 11 days vs without
[14] = efavirenz with ritlecitinib 200 mg QD × 11 days vs without, listed as efavirenz
[15] = adjusted geometric mean (reference), 1 Portia tablet (EE 30 μg and LN 150 μg) alone
[16] = adjusted geometric mean (test), 1 Portia tablet (EE 30 μg and LN 150 μg) on Day 10 of ritlecitinib 200 mg QD × 11 days
[17] = multiple ritlecitinib 200 mg QD doses
[18] = ritlecitinib 50 mg with rifampicin 600 mg QD × 8 days vs alone
[19] = ritlecitinib 50 mg with rifampicin 600 mg QD × 8 days vs alone, listed as ritlecitinib
[20] = multiple 200-mg doses of itraconazole, ritlecitinib 30 mg
[21] = ritlecitinib 30 mg with itraconazole 200 mg QD × 5 days vs alone
[22] = caffeine single dose with ritlecitinib 200 mg QD × 9 days, plasma
[23] = caffeine with ritlecitinib 200 mg QD × 9 days vs alone
[24] = caffeine with ritlecitinib 200 mg QD × 9 days vs alone, listed as caffeine

## Cc1ncc2n1-c1ccc(Cl)cc1C(c1ccccc1F)=NC2 [Midazolam, midazolam]
CYP3A [1]; [11]
  AUCinf, ratio (test/reference) of adjusted geometric means (90% CI): 269.4 (216.1–335.9) %
  AUClast, ratio (test/reference) of adjusted geometric means (90% CI): 269.3 (215.8–336.1) %
  Cmax, ratio (test/reference) of adjusted geometric means (90% CI): 180.8 (148.1–220.6) %
CYP3A [1]; [12]
  AUCinf, ratio (test/reference) of adjusted geometric means (90% CI): 269.4%
  Cmax, ratio (test/reference) of adjusted geometric means (90% CI): 180.8%
CYP3A [1]; ritlecitinib 200 mg QD
  Fold increase of midazolam AUCinf in the presence of ritlecitinib: 2.7 fold
  Fold increase of midazolam Cmax in the presence of ritlecitinib: 1.8 fold
  Increase of midazolam AUCinf in the presence of ritlecitinib: ≈ 169%
CYP3A [1]; ritlecitinib 200 mg QD, listed as midazolam
  Fold increase of midazolam AUCinf in the presence of ritlecitinib: ≈ 2.7 fold

## O=C1Nc2ccc(Cl)cc2[C@@](C#CC2CC2)(C(F)(F)F)O1 [Efavirenz, efavirenz]
CYP2B6; [13]
  AUC0–72, ratio (test/reference) of adjusted geometric means (90% CI): 99.7 (95.2–104.4) %
  AUClast, ratio (test/reference) of adjusted geometric means (90% CI): 99.7 (95.3–104.4) %
  Cmax, ratio (test/reference) of adjusted geometric means (90% CI): 88.2 (77.1–101.0) %
CYP2B6; [14]
  AUC0–72, ratio (test/reference) of adjusted geometric means (90% CI): 99.7%
  Cmax, ratio (test/reference) of adjusted geometric means (90% CI): 88.2%
CYP2B6
  Effect of ritlecitinib on efavirenz AUC0–72 and Cmax (in words): similar
CYP2B6; listed as efavirenz
  Effect of ritlecitinib on efavirenz AUC0–72 and Cmax (in words): did not produce clinically meaningful changes

## C#C[C@]1(O)CC[C@H]2[C@@H]3CCc4cc(O)ccc4[C@H]3CC[C@@]21C [EE, ethinyl oestradiol]
[2]; 50 mg
  AUC(0-inf): 0.733 ng·h/mL
  AUC(0-t): 0.605 ng·h/mL
  Cmax: 0.0638 ng/mL
[2]; 1 Portia tablet
  AUC(0-inf): 0.747 ng·h/mL
  AUC(0-t): 0.658 ng·h/mL
[2]
  Effect of ritlecitinib 50 mg QD on PK of OC steroid (in words): did not produce a clinically meaningful change
[2]; listed as ethinyl oestradiol
  Effect of ritlecitinib 50 mg QD on PK of OC steroid (in words): no relevant change
[3]; [15]
  AUC(0-inf): 0.8 ng·h/mL
[3]; [16]
  AUC(0-inf): 0.656 ng·h/mL
  Cmax: 0.0606 ng/mL
[3]; [17]
  Decrease of AUCinf following coadministration of ritlecitinib: ≈ 18%
  Decrease of Cmax following coadministration of ritlecitinib: ≈ 12%
[3]; ritlecitinib 200 mg QD
  Effect of ritlecitinib 200 mg QD on PK of OC steroid (in words): decreased

## C=CC(=O)N1C[C@H](Nc2ncnc3[nH]ccc23)CC[C@@H]1C [Ritlecitinib, ritlecitinib]
[4]; quoted for the study design, ref previous studies
  Half-life (t½) of ritlecitinib: < 2 h
[4]; up to 200 mg
  Dose proportionality of exposure (in words): approximately dose‐proportionally
CYP1A2 [5]
  Time-dependent inhibition of CYP1A2 in vitro (in words): time dependent inhibitor
CYP; multiple rifampicin doses, ritlecitinib 50 mg
  Decrease of ritlecitinib AUCinf with rifampicin: ≈ 45%
CYP; [18]
  AUCinf, ratio (test/reference) of adjusted geometric means (90% CI): 55.8 (51.9–59.9) %
  AUClast, ratio (test/reference) of adjusted geometric means (90% CI): 55.7 (51.9–59.7) %
  Cmax, ratio (test/reference) of adjusted geometric means (90% CI): 75.1 (63.3–89.1) %
CYP; [19]
  AUCinf, ratio (test/reference) of adjusted geometric means (90% CI): 55.8%
  Cmax, ratio (test/reference) of adjusted geometric means (90% CI): 75.1%
CYP; typical exposure range 0.5- to 2-fold of mean exposure
  Clinical relevance of exposure change with rifampicin (in words): not decreased to clinically relevant levels
CYP3A [6]; human, plasma, oral, 30 mg
  AUC(0-inf): 268 ng·h/mL
  AUC(0-t): 264 ng·h/mL
  Cmax: 153 ng/mL
CYP3A [6]; [20]
  Effect of itraconazole on ritlecitinib Cmax (in words): similar
  Increase of ritlecitinib AUCinf with itraconazole: ≈ 15%
CYP3A [6]; [21]
  AUCinf, ratio (test/reference) of adjusted geometric means (90% CI): 115.1 (104.6–126.7) %
  AUClast, ratio (test/reference) of adjusted geometric means (90% CI): 115.1 (104.4–126.7) %
  Cmax, ratio (test/reference) of adjusted geometric means (90% CI): 102.5 (82.8–127.0) %
[7]
  Inhibition of OCT1 (in words): inhibitor
CYP1A2 [8]
  Classification as clinical CYP1A2 inhibitor: moderate inhibitor
CYP3A4/5
  Time-dependent inhibition of CYP3A in vitro (in words): time dependent inhibitor
[9]
  Contribution of any single pathway to metabolism: ≤ 25%
  Predicted collective contribution of CYPs to metabolic disposition: ≈ 47%
  Predicted contribution of glutathione conjugation to metabolic disposition: ≈ 24%
CYP3A [1]; from midazolam DDI at ritlecitinib 200 mg QD
  Classification as clinical CYP3A inhibitor: moderate inhibitor

## Cn1c(=O)c2c(ncn2C)n(C)c1=O [Caffeine, caffeine]
CYP1A2 [10]; caffeine alone, plasma
  AUCinf, adjusted geometric mean (reference): 15 660 ng h/mL
  AUClast, adjusted geometric mean (reference): 14 780 ng h/mL
  Cmax, adjusted geometric mean (reference): 2162 ng/mL
CYP1A2 [10]; [22]
  AUCinf, adjusted geometric mean (test): 41 530 ng h/mL
  AUClast, adjusted geometric mean (test): 38 580 ng h/mL
  Cmax, adjusted geometric mean (test): 2372 ng/mL
CYP1A2 [10]; [23]
  AUClast, ratio (test/reference) of adjusted geometric means (90% CI): 261.0 (232.5−293.1) %
  Cmax, ratio (test/reference) of adjusted geometric means (90% CI): 109.7 (103.9−115.9) %
CYP1A2 [10]; [24]
  AUCinf, ratio (test/reference) of adjusted geometric means (90% CI): 265.1%
  Cmax, ratio (test/reference) of adjusted geometric means (90% CI): 109.7%
CYP1A2 [10]; ritlecitinib 200 mg QD
  Fold increase of caffeine AUCinf by ritlecitinib: ≈ 2.7 fold
  Fold increase of caffeine Cmax by ritlecitinib: ~1.1 fold
  Increase of caffeine AUCinf in the presence of ritlecitinib: ≈ 165%
  Increase of caffeine Cmax in the presence of ritlecitinib: ≈ 10%

## C#C[C@]1(O)CC[C@H]2[C@@H]3CCC4=CC(=O)CC[C@@H]4[C@H]3CC[C@@]21CC [LN, levonorgestrel]
[2]; 50 mg
  AUC(0-t): 29.6 ng·h/mL
  Cmax: 2.32 ng/mL
[2]; 1 Portia tablet
  AUC(0-t): 33.7 ng·h/mL
[3]; [15]
  AUC(0-t): 23.8 ng·h/mL
  Cmax: 2.94 ng/mL
[3]; [16]
  AUC(0-t): 26.8 ng·h/mL
  Cmax: 3.03 ng/mL
